Test results from publication PMC9374667 (Communications Biology, 2022).
Where “and” joins values, the source holds several entries; their conditions need not be identical. Equal values may be shown once.

Legend:
db/db mice [1] = experiment: HE staining of epididymal adipose tissue, adipocyte size; format: in vivo; details: for Cell diameter (adipocyte size of eWAT): individual cells
Method: (§1) The adipose tissue was fixed overnight in 4% paraformaldehyde, then embedded in paraffin and cut into 5 µm thick slices. Tissue sections were stained with hematoxylin and eosin (H&E). For immunohistochemistry, sections were incubated with primary antibodies against F4/80 (1:100 dilution) diluted in the blocking solution at 4 °C overnight. The tissue sections were then incubated with the horseradish peroxidase (HRP)-conjugated secondary antibody at room temperature for 2 h. Finally, the sections were developed with diaminobenzidine (DAB) and counterstained with hematoxylin. Images were obtained under a microscope. To quantify the F4/80-positive macrophages, two random fields per sample were analyzed by Image J software. The IHC profiler plugin of ImageJ was used to calculate the F4/80 positive area.

glycerol release = experiment: Glycerol release in eWAT of db/db mice (isoproterenol); format: in vivo; set-up: Glycerol release in eWAT (Figure 4m): unit not given here
Method: The epididymal adipose tissue was dissected, the fresh adipose tissue was weighed and rapidly rinsed with PBS. The adipose tissue was cut and incubated with isoproterenol (10 μM) for 2 h, and homogenized in a cold cleavage buffer to prepare the adipose tissue homogenate. Then the homogenate was centrifuged at 12,000 × g at 4 °C for 15 min, and the supernatant was collected. […] Then the cells were lysed in a petri dish, scraped off, and centrifuged at 12,000 × g at 4 °C for 15 min before the supernatant was collected. […] And concentrations were further standardized according to protein concentration.

[2] = test system: Fasn, Acaca, Lpl, Ucp1, Ppargc1a, Ppargc1b, Elovl3, Cox8b; experiment: qRT-PCR of lipid-metabolism-related genes (eWAT) and thermogenic genes (BAT); format: in vivo; details: db/db mice
From the text: Total RNA was isolated from 3T3-L1 cells and adipose tissue homogenates using Trizol reagent (Invitrogen, Carlsbad, CA, USA). RNA concentration and purity were examined at 260/280 nm using a nanodrop spectrophotometer (NanoDrop One, Thermo Fisher Scientific, USA). The total RNA was reverse transcribed to cDNA using the EasyScript All-in-One First-Strand cDNA Synthesis SuperMix for qPCR kit (TransGen Biotech, Beijing, China). The quantitative reverse transcription polymerase chain reaction was performed using TransStart Top Green qPCR SuperMix (TransGen Biotech, Beijing, China) and an Applied Biosystems 7500 RealTime PCR System (Life Technologies, USA). Relative expression levels were normalized to gapdh expression and quantified using the 2^-ΔΔCt method. The primers were synthesized by Shanghai Sangon Biotech, and the detailed primer sequences were shown in Supplementary Table 5 in the supplementary materials.

db/db mice [3] = experiment: Body weight of db/db mice during 35-day treatment; format: in vivo; details: db/db mice; for Average body weight gain: day 35, mean ± SD; for Body weight gain in 5 weeks: individual mice
Method: The lean wild type control and the db/db control mice were given equal vehicle volume (0.5% CMC-Na solution). All mice were monitored for food intake, body weight, and fasting blood glucose during the 35-day trial. Glucose tolerance test (GTT) and insulin resistance test (ITT) were performed at 4 and 5 weeks of treatment, respectively. Metabolic analysis was performed at 5 weeks of treatment. At the end of the study, blood samples were taken through the retroorbital venous sinus of mice, fat depots (brown fat, inguinal subcutaneous fat, epididymal fat, perirenal fat and mesenteric fat depot) were dissected, weighed, and immediately frozen in liquid nitrogen and stored at −80 °C until required. Weight of fat depots are expressed in percentage (fat depots weight /bodyweight * 100%).

[4] = test system: F4/80-positive macrophages; experiment: Immunohistochemical staining of eWAT for F4/80; format: in vivo, mice; details: for Quantification of immunohistochemical staining: Figure 5k, individual values
Method: as §1

db/db mice [5] = experiment: Serum CHO, TG, FFA, LDL-C, HDL-C and ADPN in the fasted state; format: in vivo; details: db/db mice; for ADPN (Figure 4j) / FFA (Figure 4g) / HDL-C (Figure 4i) / LDL-C (Figure 4h): serum, individual mice 1-6; for Serum CHO / Serum TG: fasted state, individual mice
Method: The serum was collected by centrifugation at 3000 × g at 4 °C for 15 min and stored at −80 °C until analysis. TG, TC, LDL-C, HDL-C, and FFA were routinely tested on a Chemray 240 automatic biochemical analyzer (Chemray 240, Shenzhen, China). Serum levels of mouse adiponectin, interleukin6 (IL-6), tumor necrosis factor-α (TNF-α) were measured using commercial enzyme-linked immunosorbent assay (ELISA) kits (Nanjing Jiancheng Bioengineering Institute, Nanjing, China) and according to the manufacturer’s instructions. The levels of IL-6, TNF-α in 3T3-L1 adipocyte culture supernatant were also detected by ELISA.

[6] = vs vehicle, BJ 75 and 150 mg/kg, BBR 150 mg/kg, Ibu 150 mg/kg

CC(C)Cc1ccc(C(C)C(=O)[O-])cc1.COc1ccc2cc3[n+](cc2c1OC)CCc1cc2c(cc1-3)OCO2.O.O.O.O [BJ, berberine-ibuprofen]
Cell diameter (adipocyte size of eWAT) (db/db mice [1]; 75 mg/kg): 121.031 µm and 117.863 µm and 116.509 µm and 116.462 µm and 115.083 µm and 111.737 µm and 111.179 µm and 109.716 µm and 106.71 µm and 106.209 µm and 103.54 µm and 98.2043 µm and 95.428 µm and 94.4084 µm and 90.8792 µm and 133.968 µm and 130.976 µm and 129.724 µm and 125.916 µm and 124.05 µm
Cell diameter (adipocyte size of eWAT) (db/db mice [1]; 150 mg/kg): 102.304 µm and 92.1827 µm and 91.4137 µm and 90.3818 µm and 88.4919 µm and 87.3914 µm and 86.5338 µm and 86.4994 µm and 85.9825 µm and 85.1497 µm and 81.6079 µm and 81.6018 µm and 80.5245 µm and 80.4936 µm and 112.756 µm and 110.047 µm and 105.5 µm and 104 µm and 102.927 µm
Size of adipocytes in eWAT compared with vehicle (db/db mice [1]; BJ 75 and 150 mg/kg, BBR 150 mg/kg, Ibu 150 mg/kg): significantly reduced
Release of glycerol in eWAT (glycerol release; db/db mice, isoproterenol stimulation): promoted the release of glycerol
Glycerol release in eWAT (Figure 4m) (glycerol release; db/db+ISO+BJ 75mg/kg, individual samples 1-6): 372.977 and 400.82 and 389.008 and 382.258 and 389.852 and 395.758
Expression of brown fat enrichment genes (Ucp1, Ppargc1a, Ppargc1b, Elovl3, Cox8b) in BAT [2]: elevated express
Expression of lipogenic genes (Fasn, Acaca, Lpl) in eWAT ([2]; vs vehicle control): downregulation of lipogenic genes
Body weight (db/db mice [3]; 75 mg/kg gavage once per day, day 1, individual mice, 75 mg/kg): 42 grams and 38 grams and 33 grams and 41 grams and 34 grams and 40 grams
Body weight (db/db mice [3]; 75 mg/kg gavage once per day, day 4, individual mice, 75 mg/kg): 44 grams and 40 grams and 36 grams and 41 grams and 39 grams and 42 grams
Body weight (db/db mice [3]; 75 mg/kg gavage once per day, day 7, individual mice, 75 mg/kg): 45 grams and 40 grams and 41 grams and 35 grams and 43 grams and 36 grams
Body weight (db/db mice [3]; 75 mg/kg gavage once per day, day 10, individual mice, 75 mg/kg): 43 grams and 40 grams and 42 grams and 35 grams and 44 grams and 36 grams
Body weight (db/db mice [3]; 75 mg/kg gavage once per day, day 13, individual mice, 75 mg/kg): 45 grams and 42 grams and 43 grams and 35 grams and 37 grams and 41 grams and 44 grams
Body weight (db/db mice [3]; 75 mg/kg gavage once per day, day 16, individual mice, 75 mg/kg): 44 grams and 42 grams and 37 grams and 46 grams and 39 grams
Body weight (db/db mice [3]; 75 mg/kg gavage once per day, day 19, individual mice, 75 mg/kg): 47 grams and 42 grams and 46 grams and 38 grams and 48 grams and 37 grams and 44 grams and 45 grams and 41 grams
Body weight (db/db mice [3]; 75 mg/kg gavage once per day, day 22, individual mice, 75 mg/kg): 49 grams and 44 grams and 48 grams and 39 grams and 38 grams and 46 grams and 47 grams and 42 grams
Body weight (db/db mice [3]; 75 mg/kg gavage once per day, day 25, individual mice, 75 mg/kg): 50 grams and 45 grams and 49 grams and 40 grams and 48 grams and 38 grams and 46 grams and 42 grams
Body weight (db/db mice [3]; 75 mg/kg gavage once per day, day 28, individual mice, 75 mg/kg): 50 grams and 46 grams and 40 grams and 49 grams and 45 grams and 47 grams and 41 grams
Body weight (db/db mice [3]; 75 mg/kg gavage once per day, day 31, individual mice, 75 mg/kg): 53 grams and 47 grams and 52 grams and 40 grams and 50 grams and 41 grams and 43 grams
Body weight (db/db mice [3]; 75 mg/kg gavage once per day, day 34, individual mice, 75 mg/kg): 52 grams and 47 grams and 44 grams and 51 grams and 43 grams and 50 grams and 45 grams and 48 grams
Average body weight gain (db/db mice [3]; 75 mg/kg gavage once per day): 9.4 ± 2.7 g
Body weight gain in 5 weeks (db/db mice [3]; 75 mg/kg gavage once per day, 75 mg/kg): 7 grams and 10 grams and 9 grams and 14 grams and 11 grams
Body weight (db/db mice [3]; 150 mg/kg gavage once per day, day 1, individual mice, 150 mg/kg): 38 grams and 44 grams
Body weight (db/db mice [3]; 150 mg/kg gavage once per day, day 4, individual mice, 150 mg/kg): 39 grams
Body weight (db/db mice [3]; 150 mg/kg gavage once per day, day 7, individual mice, 150 mg/kg): 39 grams
Body weight (db/db mice [3]; 150 mg/kg gavage once per day, day 10, individual mice, 150 mg/kg): 38 grams
Body weight (db/db mice [3]; 150 mg/kg gavage once per day, day 13, individual mice, 150 mg/kg): 40 grams
Body weight (db/db mice [3]; 150 mg/kg gavage once per day, day 16, individual mice, 150 mg/kg): 39 grams
Body weight (db/db mice [3]; 150 mg/kg gavage once per day, day 19, individual mice, 150 mg/kg): 39 grams
Body weight (db/db mice [3]; 150 mg/kg gavage once per day, day 22, individual mice, 150 mg/kg): 37 grams
Body weight (db/db mice [3]; 150 mg/kg gavage once per day, day 25, individual mice, 150 mg/kg): 37 grams and 44 grams
Body weight (db/db mice [3]; 150 mg/kg gavage once per day, day 28, individual mice, 150 mg/kg): 38 grams and 43 grams
Body weight (db/db mice [3]; 150 mg/kg gavage once per day, day 31, individual mice, 150 mg/kg): 40 grams and 46 grams
Body weight (db/db mice [3]; 150 mg/kg gavage once per day, day 34, individual mice, 150 mg/kg): 43 grams and 48 grams
Average body weight gain (db/db mice [3]; 150 mg/kg gavage once per day): 5.2 ± 0.9 g
Body weight gain in 5 weeks (db/db mice [3]; 150 mg/kg gavage once per day, 150 mg/kg): 6 grams and 5 grams and 4 grams
Body weight compared with vehicle (db/db mice [3]; 5 weeks, BJ 75 and 150 mg/kg, BBR 150 mg/kg, Ibu 150 mg/kg): lower body weight than the db/db mice treated with the vehicle
Quantification of immunohistochemical staining ([4]; BJ 75mg/kg): 0.9922 and 0.9735 and 1.1881 and 1.5389 and 0.7221 and 0.7355
Quantification of immunohistochemical staining ([4]; BJ 150mg/kg): 0.2082 and 0.4937 and 0.5395 and 0.2725 and 0.374 and 0.2768
Proportion of F4/80-positive macrophages around adipocytes ([4]; db/db mice, epididymal fat pads): lower than that of the vehicle-treated db/db mice
ADPN (Figure 4j) (db/db mice [5]; BJ 75mg/kg): 460 and 566.78 and 483.17 and 443.62 and 491.01 and 609.29
FFA (Figure 4g) (db/db mice [5]; BJ 75mg/kg): 641.9 and 692.8 and 709.3 and 711.6 and 731.5 and 667
HDL-C (Figure 4i) (db/db mice [5]; BJ 75mg/kg): 2.6 and 2.7 and 3.1 and 2.1 and 3 and 2.4
LDL-C (Figure 4h) (db/db mice [5]; BJ 75mg/kg): 4.35 and 5.54 and 4.19 and 5.48 and 5.18 and 4.51
ADPN (Figure 4j) (db/db mice [5]; BJ 150mg/kg): 563.3 and 624.62 and 712.07 and 705.63 and 665.38 and 609.46
FFA (Figure 4g) (db/db mice [5]; BJ 150mg/kg): 697.7 and 666.2 and 614.5 and 627 and 678.9 and 614.6
HDL-C (Figure 4i) (db/db mice [5]; BJ 150mg/kg): 3.5 and 2.9 and 2.4 and 2.8 and 2.7 and 3.1
LDL-C (Figure 4h) (db/db mice [5]; BJ 150mg/kg): 3.35 and 4.57 and 3.32 and 3.26 and 3.43 and 3.59
Serum CHO (db/db mice [5]; 75 mg/kg): 4.2 mmol/L and 4.3 mmol/L and 4.6 mmol/L and 3.4 mmol/L and 6.1 mmol/L and 5.3 mmol/L
Serum TG (db/db mice [5]; 75 mg/kg): 0.92 mmol/L and 1.17 mmol/L and 1.79 mmol/L and 1.19 mmol/L and 1.62 mmol/L and 1.33 mmol/L
Serum CHO (db/db mice [5]; 150 mg/kg): 3.2 mmol/L and 4.9 mmol/L and 4.5 mmol/L and 4.2 mmol/L and 3.7 mmol/L and 4.6 mmol/L
Serum TG (db/db mice [5]; 150 mg/kg): 1.18 mmol/L and 1.01 mmol/L and 1.29 mmol/L and 1.1 mmol/L and 1.5 mmol/L
Serum levels of CHO, TG, FFA and LDL-C (db/db mice [5]; [6]): decreased
Serum levels of HDL-C and adiponectin (ADPN) (db/db mice [5]; [6]): increased
